Test results taken from patent publication US11866695B2, “Methods and systems and related compositions for mixtures separation with a solid matrix” (CALIFORNIA INSTITUTE OF TECHNOLOGY, priority 2019, dated 2024).
Read-outs that look alike come from different tables or passages of the source.

Legend:
[1] = Phase separation of compounds mixed at a 1:1 volume ratio; format: physicochemical; design: key: A “2” denotes phase separation into 2 distinct phases; a “1” forms a single phase
[2] = system: LAMP spiked with 5×104 copies λ phage DNA; experiment: TPW screen with LAMP (1 μL wash candidate added to 10 μL reaction); format: biochemical; conditions: 1 μL candidate in 11 μL total
Procedure: LAMP primers (Integrated DNA Technologies (IDT), Coralville, Iowa, USA) were designed, ordered, and added at NEB's recommended concentrations of […] FIP/BIP, 0.2μM F3/B3, and […] LoopF/B.
Each 96-well plate was sealed and briefly spun. […] Time-to-positive (TTP) was determined when the software's automated baseline corrected fluorescence reached 1000 RFU.
(§1) Criterion 1a was investigated directly by performing qPCR and LAMP reactions. Reactions were spiked with λ phage DNA, diluted up to 10 μL, and an additional 1 μL of different wash buffer candidates was added to a total of 11 μL. […] As an experimental control, a “No Additive” condition was tested, which was a 10 μL reaction with optimized reaction conditions and no inhibitors. To control for the effects of a 1 μL dilution on the reaction, a “Water” condition which was an 11 μL reaction with no inhibitors was also tested.

[3] = system: qPCR spiked with 5×104 copies λ phage DNA; format: biochemical; conditions: 1 μL candidate in 11 μL total; for Avg Cq: N.D. = not detected within 40 cycles; for ΔCq: minus the No additive control
Procedure: (§2) Heating and real-time imaging were performed on the Bio-Rad CFX-96 Touch Real-Time PCR Detection System by heating to 95° C. for 5 min, cycling 40 times between 95° C. for 15 s, 60° C. for 15 s, and 72° C. for 20 s, and taking a melt-curve analysis. For the E. coli DNA dilution experiment, qPCR was run for 60 cycles. Fluorescence readings were taken at the end of each extension step. Quantification cycle (Cq) was determined when the software's automated baseline corrected fluorescence reached 200 RFU.
as §1

[4] = cited from earlier work
[5] = system: qPCR spiked with 5×104 copies λ phage DNA; experiment: qPCR reaction inhibition by dilutions of NA extraction kit buffers; format: biochemical; conditions: for Avg Cq: 9 replicates, non-detects assigned 40 cycles
Procedure: as §2, with “qPCR reactions contained 1× Bio-Rad SsoFast Supermix (1725201, Bio-Rad), PCR primers (IDT) at […] each, and were supplemented with nuclease-free water up to 10 μL. Each 96-well plate (thin-wall clear well, HSP9641, Bio-Rad) was sealed (Microseal B, MSB1001, Bio-Rad) and briefly spun in a Mini Plate Spinner Centrifuge (14-100-141, Fisher Scientific). Heating” for “Heating”
Confidence intervals were calculated assuming the populations to be normally distributed and using a t statistic. For buffer inhibition experiments, statistical analysis was performed by a 1-tailed unequal variance t-test (N=9) comparing the water condition (control) to each buffer concentration (H1: the mean is delayed). For the subsequent experiments, a 2-tailed unequal variance t-test (H1: the means are different) was used. Non-detects were assigned the maximum possible Cq measurement of 40 cycles or a TTP of 46.7 min to indicate the lack of amplification. Although this approach introduces some bias into the analysis, it is believed this is the best representation for handling non-detects (other alternatives include excluding the non-detects or assigning non-detect values to the average of those that amplified).
These two commercial kits in particular were chosen because they both utilize minimal protocols (lysis, wash, elute) with no added steps (e.g. bacterial pellet spins, proteinase K, lysozyme, DNase/RNase, filtration, etc.). Specifically, an experiment was conducted to identify the concentration at which each buffer inhibits qPCR and LAMP. First, buffers were added at half-log dilutions (from 10% down to 0.032%) into λ phage spiked qPCR or LAMP reactions (1 μL diluted buffer, 1 μL template, 8 μL reaction mix).

CCCCCCCCCCCO [1-undecanol]
Number of phases ([1]; mixed 1:1 (volume) with Ethanol): 1 | Number of phases ([1]; mixed 1:1 (volume) with H2O): 2 | Number of phases ([1]; mixed 1:1 (volume) with VWB (80% ethanol v/v)): 1 | Avg TTP ([2]; N.D. = not detected within 40 min): 6.70 min | ΔTTP ([2]; minus the No additive control): 0.16 min | Avg Cq [3]: 19.67 cycles | ΔCq [3]: −0.42 cycles | Solubility of TPW Candidate in water [4]: 0.0015 g/100 mL | Solubility of water in TPW Candidate [4]: 3.4 g/100 g

CCO [Ethanol, ethanol]
Avg Cq ([5]; 0.03% buffer in qPCR): 20.1 cycles | ΔCq ([5]; 0.03% buffer vs water condition (0%)): 0.0 cycles | Avg Cq ([5]; 0.1% buffer in qPCR): 20.2 cycles | ΔCq ([5]; 0.1% buffer vs water condition (0%)): 0.1 cycles | Avg Cq ([5]; 0.32% buffer in qPCR): 20.2 cycles | ΔCq ([5]; 0.32% buffer vs water condition (0%)): 0.1 cycles | Avg Cq ([5]; 1% buffer in qPCR): 20.1 cycles | ΔCq ([5]; 1% buffer vs water condition (0%)): 0.0 cycles | Avg Cq ([5]; 3.2% buffer in qPCR): 20.6 cycles | ΔCq ([5]; 3.2% buffer vs water condition (0%)): 0.5 cycles | Avg Cq ([5]; 10% buffer in qPCR): 27.5 cycles | ΔCq ([5]; 10% buffer vs water condition (0%)): 7.4 cycles | Avg Cq [3]: 25.30 cycles | ΔCq [3]: 5.21 cycles | Solubility of TPW Candidate in water ([4]; in words): Miscible | Solubility of water in TPW Candidate ([4]; in words): Miscible
